In one test the test system is THP-1 cells. Description: Example D: LPS-triggered THP-1 cell death assay, acute/5-hour and chronic/48-hour. Particulars: for Viable cell percent change, Chronic/48-hour, Mean: 10 ng/ml LPS, 0.1 μM test compound. It counts as cell-based, Human. The method, then:
Compounds of the invention were tested at 0.1 μM versus AC in the LPS-triggered THP-1 cell death assay. Both acute/5-hour and chronic/48-hour phases of cell death were assessed. Compounds were screened in batches with DMSO as the negative control and AC as the high activity control.

Test [1] has as its system 4T1 murine breast cancer cells. The test is described as follows: Example S: in vitro anticancer screen, 4T1 cells, Wst1. Particulars: 18 hr, Wst1; for viability at 1 µM / viability at 5 µM: Mus musculus, 4T1, 18 h; for viability at 1 µM: read-out: 4T1 1 μM, percent of cancer cell survival relative to vehicle treated cells; for viability at 5 µM: read-out: 4T1 5 μM, percent of cancer cell survival relative to vehicle treated cells. The test is classed as cell-based, mouse. The method, then: Anticancer activity against 4T1 murine breast cancer cells cancer cells was assessed in vitro by seeding 1×10^4 cells/well in flat bottom culture plates, then treating with selected 1 μM or 5 μM concentrations of compounds for 18 hr after plating. Then 10 μL of Wst1 dye reagent, a tetrazolium dye indicator for […], was added/well and incubated approximately 2 hr before being assayed on the Biotek EL800 Universal microplate reader (450 nm, reference 630 nm).
(§1) Numerical values in the Table 37 represent percent of cancer cell survival relative to vehicle treated cells at the indicated concentrations, with values under 100 indicating anticancer cytotoxic activity at the drugs concentrations tested.

For test [2], the system named is PC-3 prostate cancer cells. The test is described as follows: Example T: sensitisation of PC-3 cells to doxorubicin, oxaliplatin, paclitaxel or vincristine, Wst1. It counts as cell-based, human. Particulars: PC-3 cells, 72 hours; for Doxorubicin 3.5 μM: percent cell survival / Oxaliplatin 100 μM: percent cell survival / Paclitaxel 50 μM: percent cell survival / Vincristine 100 nM: percent cell survival: chemotherapy agent alone normalized to 100%.

Test [3] relates to PC3 human prostate cancer cells. Description: Example S: in vitro anticancer screen, PC-3 cells, Wst1. It counts as cell-based. Particulars: approximately 20 hours, Wst1. The method, then:
Activity against PC3 human prostate cancer cells in vitro was assessed by a similar method. PC-3 prostate cancer cells were plated at 2×10^4 cells/well in 96 well flat bottom tissue culture plates, and incubated for approximately 20 hours with vehicle or test compounds at concentrations of 0.4, 0.5 or 2.5 μM as indicated for specific compounds in the right-hand column of Table 37. A 1/10th volume of Wst1 dye was added/well and incubated for two hours in the cell culture incubator. Samples were analyzed in triplicate on an EL800 Universal Microplate Reader at 450 nm, reference wavelength 630 nm.
as §1

[4] abbreviates: Homo sapiens, compound 2.5 μM alone, Wst1, vehicle = 100, read-out: No Chemo: percent cell survival.
Setting [5] is: compound 2.5 μM + doxorubicin 3.5 μM.
[6] abbreviates: compound 2.5 μM + oxaliplatin 100 μM.
The mark [7] stands for this setting: compound 2.5 μM + paclitaxel 50 μM.
Where [8] appears, read: compound 2.5 μM + vincristine 100 nM.
Where [9] appears, read: Homo sapiens, PC-3, 2.5 μM, read-out: PC-3, percent of cancer cell survival relative to vehicle treated cells.

With `c1ccc(COc2cccc(CNc3ccnc4ccccc34)c2)cc1` [BU, N-[3-(Benzyloxy)benzyl]quinolin-4-amine], the “Viable cell percent change, Chronic/48-hour, Mean” value (shortened to “Viable cell percent change”) with THP-1 cells is on record as 18.10%. Besides, the “activity relative to AC in the LPS-triggered THP-1 cell death assay, in words” value with THP-1 cells (0.1 μM, 5-hour and 48-hour time points) was “equivalent activity to AC at both the 5-hour and 48-hour time points”. Besides, in test [1] (1 μM), the viability at 1 µM came out at 17.6%. The viability at 5 µM in test [1] (5 μM) was 21.4%. The viability at 0.4 µM was found to be 24% in test [2] (Homo sapiens, compound 0.4 μM alone, Wst1, vehicle = 100, read-out: No Chemo: percent cell survival) and 24% in test [3] (Homo sapiens, PC-3, 0.4 μM, read-out: PC-3, percent of cancer cell survival relative to vehicle treated cells). For the same compound, in test [2] (compound 0.4 μM + doxorubicin 3.5 μM), the “Doxorubicin 3.5 μM: percent cell survival” value was 48.1%. For the same compound, the “Oxaliplatin 100 μM: percent cell survival” value in test [2] (compound 0.4 μM + oxaliplatin 100 μM) turned out to be 57.2%. Also, the “Paclitaxel 50 μM: percent cell survival” value in test [2] (compound 0.4 μM + paclitaxel 50 μM) is recorded as 31%. For the same compound, the “Vincristine 100 nM: percent cell survival” value in test [2] (compound 0.4 μM + vincristine 100 nM) stood at 26.7%.
`c1cncc(CNc2ccnc3ccccc23)c1` [BY, N-(Pyridin-3-ylmethyl)quinolin-4-amine]: the “Viable cell percent change” value in the test with THP-1 cells was determined as 39.64%. Besides, the viability at 1 µM in test [1] (1 μM) came out at 107%. Moreover, the viability at 5 µM in test [1] (5 μM) came to 209%. Further, the viability at 2.5 µM in test [2] (setting [4]) and in test [3] (setting [9]) was 96.6% throughout. Moreover, the “Doxorubicin 3.5 μM: percent cell survival” value in test [2] (setting [5]) is on record as 98.4%. Also, in test [2] (setting [6]), the “Oxaliplatin 100 μM: percent cell survival” value is on record as 101.1%. Further, the “Paclitaxel 50 μM: percent cell survival” value in test [2] (setting [7]) was 99.9%. Besides, in test [2] (setting [8]), the “Vincristine 100 nM: percent cell survival” value is listed as 94.1%.
For `CCCCCCOCCCCCOCCCn1cnc2cnc3ccccc3c21` [CF], in the test with THP-1 cells, the “Viable cell percent change” value turned out to be 27.26%. In test [1] (1 μM), the “4T1 1 μM, percent of cancer cell survival relative to vehicle treated cells” value worked out at 96.7%. Besides, the “4T1 5 μM, percent of cancer cell survival relative to vehicle treated cells” value in test [1] (5 μM) is recorded as 28.6%. Moreover, in test [2] (setting [5]), the “Doxorubicin 3.5 μM: percent cell survival” value amounted to 68.8%. The “Oxaliplatin 100 μM: percent cell survival” value in test [2] (setting [6]) amounted to 83.5%. In test [2] (setting [7]), the “Paclitaxel 50 μM: percent cell survival” value was found to be 70.3%. The “Vincristine 100 nM: percent cell survival” value in test [2] (setting [8]) came out at 75.3%. Also, the “No Chemo: percent cell survival” value in test [2] (compound 2.5 μM alone, Wst1, vehicle = 100) turned out to be 126.4%. Also, the “PC-3, percent of cancer cell survival relative to vehicle treated cells” value in test [3] (2.5 μM) is 126.4%.
`CCCCCCOc1ccccc1C(=O)NCCNc1ccnc2ccccc12` [EB, 2-(Hexyloxy)-N-[2-(quinolin-4-ylamino)ethyl]benzamide]: the “Viable cell percent change” value in the test with THP-1 cells came to 35.89%. Moreover, the viability at 2.5 µM in test [2] (setting [4]) and in test [3] (setting [9]) was 94.4% in each case. Further, the “Doxorubicin 3.5 μM: percent cell survival” value in test [2] (setting [5]) is 93.4%. Also, the “Oxaliplatin 100 μM: percent cell survival” value in test [2] (setting [6]) is reported as 98.8%. In addition, in test [2] (setting [7]), the “Paclitaxel 50 μM: percent cell survival” value turned out to be 143.3%. Besides, the “Vincristine 100 nM: percent cell survival” value in test [2] (setting [8]) is recorded as 98.2%.
As for `CCCCCCOc1ccccc1C(=O)NCCCNc1ccnc2ccccc12` [EC, 2-(Hexyloxy)-N-[3-(quinolin-4-ylamino)propyl]benzamide], the “Viable cell percent change” value in the test with THP-1 cells is listed as 47.40%. Further, the viability at 2.5 µM in test [2] (setting [4]) and in test [3] (setting [9]) was 94.6% throughout. Also, the “Doxorubicin 3.5 μM: percent cell survival” value in test [2] (setting [5]) stood at 82.8%. Further, the “Oxaliplatin 100 μM: percent cell survival” value in test [2] (setting [6]) is on record as 100.4%. For the same compound, in test [2] (setting [7]), the “Paclitaxel 50 μM: percent cell survival” value is recorded as 136.8%. The “Vincristine 100 nM: percent cell survival” value in test [2] (setting [8]) worked out at 91.6%.
As for `CCCCCCOCCCCCCCCn1cnc(-c2ccccc2)c1` [FR, 1-[8-(Hexyloxy)octyl]-4-phenyl-1H-imidazole], in the test with THP-1 cells, the “Viable cell percent change” value turned out to be 15.96%. Further, the viability at 2.5 µM in test [2] (setting [4]) and in test [3] (setting [9]) was 101% throughout. In test [2] (setting [5]), the “Doxorubicin 3.5 μM: percent cell survival” value is on record as 93.2%. In test [2] (setting [6]), the “Oxaliplatin 100 μM: percent cell survival” value is given as 102.5%. Further, the “Paclitaxel 50 μM: percent cell survival” value in test [2] (setting [7]) was 102.5%. In test [2] (setting [8]), the “Vincristine 100 nM: percent cell survival” value is given as 99.1%.
In the case of `CCCCCCOCCCCCCCCn1ccc2ccccc21` [FW, 1-[8-(Hexyloxy)octyl]-1H-indole], the “Viable cell percent change” value in the test with THP-1 cells is on record as 1.27%. Moreover, the viability at 5 µM in test [2] (Homo sapiens, compound 5 μM alone, Wst1, vehicle = 100, read-out: No Chemo: percent cell survival) came out at 98.1%; in test [3] (Homo sapiens, PC-3, 5 μM, read-out: PC-3, percent of cancer cell survival relative to vehicle treated cells), 98.1%. Besides, in test [2] (compound 5 μM + doxorubicin 3.5 μM), the “Doxorubicin 3.5 μM: percent cell survival” value amounted to 102.7%. For the same compound, the “Oxaliplatin 100 μM: percent cell survival” value in test [2] (compound 5 μM + oxaliplatin 100 μM) is 109.6%. Also, the “Paclitaxel 50 μM: percent cell survival” value in test [2] (compound 5 μM + paclitaxel 50 μM) came to 128.5%. In test [2] (compound 5 μM + vincristine 100 nM), the “Vincristine 100 nM: percent cell survival” value was found to be 104.6%.

The record behind these values is patent US20250034139A1, “AMINE COMPOUNDS HAVING ANTI-INFLAMMATORY, ANTIFUNGAL, ANTIPARASITIC, AND ANTICANCER ACTIVITY” (PHARMA CINQ, LLC, priority 2013, published 2025).
